# Data taken from US20260102628A1, “METHOD AND APPARATUS FOR MONITORING OF PHOTODYNAMIC-THERAPY PRECURSOR STATES FOR ENHANCED THERAPEUTIC EFFICIENCY” (priority 2022, published 2026).
# Assay: Optical fiber-coupled TRAST curves of IR700 in tissue and PBS buffer solution, with and without ascorbic acid
# Assay type: physicochemical
# Settings: IR700 in tissue or PBS buffer solution, FIG. 6B
# Text: FIG. 6A illustrates the presently disclosed embodiment of a system for PDT (611), wherein the system is arranged such that the same excitation-light-delivering fiber(s) also are arranged as detection fiber(s). The system may thus be arranged to carry out a method for PDT as disclosed elsewhere herein.
# The system (611) typically comprises an intensity-modulated excitation light (605), e.g. from a laser (601) and an AOM (602). The excitation light (605) is applied, e.g. lensed by an objective (603), via a gradient-index multimode optical fiber (604), into a sample (609, tissue or water solution). […] The fluorescence plotted in the TRAST curves (612), corresponds to the (average) fluorescence from the PS compounds generated by the (modulated) excitation at the fiber end, which was collected (606) by the same fiber (604), passed through the fiber, through a dichroic mirror (607), and was then detected in a region-of-interest (ROI) within the field of detection of a camera (608). While only one fiber is shown in FIG. 6A, the system may comprise multiple fibers, into which excitation light from one or several lasers is introduced, and via which fluorescence detected from their fiber-ends is fed to different ROIs detected on the camera pixel array, and/or to a set of point detectors. […]
Structure (SMILES),"time range of the faster major relaxation in the TRAST curves, attributed to T1 build-up","time range of the prominent relaxation in the TRAST curves, attributed to build-up of a photo-reduced radical state population in IR700 (after addition of ascorbic acid) [ms]"
"C[Si](C)(CCC[N+](CCCS(=O)(=O)[O-])(CCCS(=O)(=O)[O-])CCCS(=O)(=O)[O-])O[Si]1(O[Si](C)(C)CCC[N+](CCCS(=O)(=O)[O-])(CCCS(=O)(=O)[O-])CCCS(=O)(=O)[O-])n2c3c4ccccc4c2N=C2N=C(N=c4c5ccccc5c(n41)=NC1=NC(=N3)c3ccccc31)c1cccc(OCCCOC(=O)NCCCCCC(=O)ON3C(=O)CCC3=O)c12.[Na+].[Na+].[Na+].[Na+] (centres unmarked) [IR700, IRdye700DX]",microsecond time range,
O=C1O[C@H]([C@@H](O)CO)C(O)=C1O [ascorbic acid],,~0.1
